Assay [1] has as its system Staphylococcus aureus IFO 12732. As to the kind of experiment: Anti-bacterial activity test, agar medium dilution method. The format is cell-based. Particulars: Sa-3. How it is done: (§1) The aerobic microorganisms were examined in an agar medium dilution method and the anaerobic microorganisms were examined in a liquid medium dilution method under anaerobic culture conditions. Muller Hinton agar medium (DIFCO) was heated and dissolved and 10 ml of the medium was introduced into each test tube, sterilized and used. The sample was prepared by dissolving in ethanol and the resulting ethanol solution was diluted 2-fold serially with ethanol, and 100 micro-liters of sample solution were added to 10 ml of each dissolved agar medium, then stirred, introduced into a Petri dish of 9 cm in diameter, and solidified at room temperature. Each test microorganism in a well grown slant was inoculated via one loop of platinum into 10 ml Muller Hinton broth (DIFCO) and cultured with shaking at 27° C. for 24 hours and used as a microbial fluid. This fluid was diluted at 10^8 CFU (Colony forming unit)/ml, and 5 micro-liters of the diluted fluid were inoculated onto the agar and cultured at 37° C. overnight. Inoculation of the microorganism was conducted using microplanter MIT-P for 27 tubes test microorganisms (Sakuma Seisakusho K. K.).

Assay [2] has as its system Malassezia furfur IFO 0656. The assay is described as above. The format is cell-based. Particulars: Mf-1. As for the experimental part:
as §1

Assay [3] deals with Staphylococcus epidermidis JCM 2414. The description is as above. Particulars: Se-1. The format is cell-based. How it is done:
as §1

Assay [4] concerns Corynebacterium xerosis JCM 1324. The description is as above. Type of assay: cell-based. The settings on record: Cx-2. How it is done: as §1
Assay [5] deals with Corynebacterium minutissimum ATCC 23348. Described as above. The format is cell-based. The settings on record: Cm-1. How it is done:
as §1

The test system of assay [6] is Staphylococcus epidermidis var. H-6. The assay is described as above. Particulars: Se-2. Type of assay: cell-based. How it is done: as §1
Assay [7] relates to Bacillus subtilis PCI 219 IFO 3134. The assay is described as above. The format is cell-based. Particulars: Bs-1. As for the experimental part:
as §1

In assay [8] the test system is streptococcus mutans JCM 5157. As to the kind of experiment: Anti-bacterial activity test, liquid medium dilution method (anaerobic). Type of assay: cell-based. The settings on record: Su-1, anaerobic. As for the experimental part: (§2) The aerobic microorganisms were examined in an agar medium dilution method and the anaerobic microorganisms were examined in a liquid medium dilution method under anaerobic culture conditions. 10 ml GAM broth (Nissui) was introduced into each test tube equipped with a cap and sterilized. 100 micro-liter of the sample solution prepared for agar medium dilution method was added to each test tube and lightly stirred, and 100 micro-liter test microbial solution (10^7 CFU/ml) was added thereto, then capped and incubated at 37° C. The test microbial solution was prepared by introducing 100 micro-liter stock microbial solution into 10 ml GAM broth in a test tube then capping the tube and fermenting it at 37° C. overnight.

Assay [9] deals with Propinibadterium Acnes ATCC 12818. The description is as above. Type of assay: cell-based. The settings on record: Pa-1, anaerobic. As for the experimental part: as §2
For assay [10], the target named is T1, tyrosinase in B16 melanoma cells (Mus musculus, UniProt P11344).
T1 construct: the resulting supernatant was used as a crude enzyme solution; endogenous in cells; host or cells: B16 melanoma cells (Triton X100 lysate, sonicated, 11,000 G supernatant)
T1 sequence (P11344 19-533): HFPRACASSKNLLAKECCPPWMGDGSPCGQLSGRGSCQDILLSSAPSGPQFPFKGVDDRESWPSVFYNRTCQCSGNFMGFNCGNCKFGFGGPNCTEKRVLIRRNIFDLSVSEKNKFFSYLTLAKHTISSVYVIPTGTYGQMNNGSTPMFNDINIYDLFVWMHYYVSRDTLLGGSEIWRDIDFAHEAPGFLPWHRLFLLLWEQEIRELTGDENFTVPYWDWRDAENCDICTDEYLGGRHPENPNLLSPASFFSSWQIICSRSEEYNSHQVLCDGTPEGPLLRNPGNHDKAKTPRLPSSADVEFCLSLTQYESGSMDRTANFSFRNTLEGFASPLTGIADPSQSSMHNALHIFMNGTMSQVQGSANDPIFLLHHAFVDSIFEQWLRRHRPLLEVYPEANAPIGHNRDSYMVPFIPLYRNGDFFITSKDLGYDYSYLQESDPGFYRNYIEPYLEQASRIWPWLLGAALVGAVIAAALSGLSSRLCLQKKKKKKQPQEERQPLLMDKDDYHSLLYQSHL
As to the kind of experiment: Test of tyrosinase inhibition in B16 melanoma cells (crude enzyme solution). The format is biochemical. The settings on record: 25 ppm, L-DOPA substrate, 37° C. 3 hours. How it is done: B16 melanoma cells were cultured for 3 days in DMEM containing 10% FBS at 37° C. in the presence of 5% carbon dioxide. The cells proliferated after culture were recovered by treatment with trypsin, then suspended in PBS containing 0.1% Triton X100 at a density of ten million cells/ml and disrupted by sonication. The product obtained was centrifuged at 11,000 G for 20 minutes, and the resulting supernatant was used as a crude enzyme solution. Added thereto was 0.2 ml of crude enzyme solution. The mixture was preliminarily kept at 37° C. for 5 minutes, and 0.2 ml L-DOPA solution (0.5 mg/ml) was added as the substrate, and the mixture was kept at 37° C. for 3 hours.

Assay [11] deals with mushroom-derived tyrosinase. As to the kind of experiment: Mushroom tyrosinase inhibition test. The settings on record: 25 ppm, L-tyrosine substrate, 37° C. 30 minutes. Type of assay: biochemical. How it is done: After reaction, the absorbance (OD) at a wavelength of 490 nm was measured and the degree of inhibition of tyrosinase reaction was determined according to the following equation. […] Sample: The buffer, the enzyme solution, the substrate solution and the sample solution Sample-free: The buffer, the enzyme solution and the substrate solution Blank: The buffer and the enzyme solution

The subject of assay [12] is B16 melanoma cells. As to the kind of experiment: Melanin formation prevention test (melanin production and cell proliferation). The format is cell-based. The settings on record: for Degree of cell proliferation: relative to ethanol control. As for the experimental part:
B16 melanoma cells were suspended (10,000 cells/ml) in DMEM (Dulbecco's modified eagle medium) containing 10% FBS (fetal bovine serum) and 8 ml of the suspension was added to a cell culture bottle with a 25 cm^2 bottom surface area, and cultured at 37° C. in the presence of 5% carbon dioxide for 3 days. After 3 days of culture, the old medium was exchanged with 8 ml of fresh medium. 40 micro-liters of a sample solution, in which compounds of the present invention had been dissolved in ethanol to give a final concentration shown in the table, were further added thereto. As the control, ethanol only was added. After the medium change, the cells were further cultured for 3 days under the same conditions. After culture was finished, the medium was removed, and the cells were recovered by treatment with trypsin (DIFCO) and suspended in 4 ml of phosphate buffered saline (PBS) and a predetermined amount ( 1/40) of this suspension was used to measure the number of cells in a Coultar counter (Sysmex Co.) to determine the degree of cell proliferation.
The degree of cell proliferation was determined according to the following equations:
Degree of cell proliferation (%)=(number of cells in sample)/(number of cells in control)×100
The remainder of the cell suspension was centrifuged and then washed with 5% trichloroacetic acid, then with ethanol/ethyl ether (3:1 by volume), and with ethyl ether and the cells were dried, and 2N—NaOH was added thereto to dissolve (melanin in) the cells under heating at 70° C. and measured for its optical density (OD) at 420 nm. Using a calibration curve of synthetic melanin, the amount of melanin/million cells was determined from the OD and the degree of inhibition of melanin production was determined according to the following equation:
Degree of inhibition of melanin (%)=(amount of melanin in control−amount of melanin in sample)/(amount of melanin in control)×100

Assay [13] has as its system B16 melanoma cells. The assay can be described thus: Combination test with existing tyrosinase inhibitors (method of Test Example 1). The format is cell-based. Particulars: 0.4 ppm, alone; Table 2, combined use with arbutin. As for the experimental part: B16 melanoma cells were suspended (10,000 cells/ml) in DMEM (Dulbecco's modified eagle medium) containing 10% FBS (fetal bovine serum) and 8 ml of the suspension was added to a cell culture bottle with a 25 cm^2 bottom surface area, and cultured at 37° C. in the presence of 5% carbon dioxide for 3 days. After 3 days of culture, the old medium was exchanged with 8 ml of fresh medium. 40 micro-liters of a sample solution, in which compounds of the present invention had been dissolved in ethanol to give a final concentration shown in the table, were further added thereto. As the control, ethanol only was added. After the medium change, the cells were further cultured for 3 days under the same conditions. […] Degree of cell proliferation (%)=(number of cells in sample)/(number of cells in control)×100 […] Using a calibration curve of synthetic melanin, the amount of melanin/million cells was determined from the OD and the degree of inhibition of melanin production was determined according to the following equation: Degree of inhibition of melanin (%)=(amount of melanin in control−amount of melanin in sample)/(amount of melanin in control)×100 […]

Assay [14] deals with UV Ray-induced Pigment Stains. The assay can be described thus: Effect of diminishing UV ray-induced pigment stains in guinea pigs. The format is in vivo, brown guinea pigs. Particulars: 7% ethanol solution applied once per day on UVB-irradiated skin. The text has this:
Hair was carefully removed from the back of 5 brown guinea pigs, and a shielding plate provided with four 2.5 cm×2.5 cm openings was attached to the portion from which hair had been removed, followed by irradiating it 3 times every second day with UVB rays at an intensity of 450 mj/cm^2. Immediately after the irradiation of UVB rays, a 70 micro-liters sample was applied onto the irradiated site once per day for 35 days, and the amount of pigment diminished by this treatment was examined on the days shown in Table 5. […]
For evaluation of the activity, each application site was measured by a calorimeter (CR200b, Minolta Co Ltd.). ΔLx is the difference between the L value after the sample application (value changing with time) and the L value of the portion before the sample application started, and then ΔΔL value was determined by subtracting ΔLo value (i.e. the value similarly determined for the portion to which ethanol was applied) from the ΔLx value. The ΔΔL value can be determined according to the equation: […]
Lo: L value of the test site (site to which the sample was applied) before sample application
Lx : L value of the test site (site to which the sample was applied) on Day x after sample application
L′o : L value of the control site (site to which ethanol was applied) before ethanol application
L′x : L value of the control site (site to which ethanol was applied) on Day x after ethanol application

Assay [15] has as its system Human-derived normal skin fibroblasts (NB1RGB). As to the kind of experiment: Test of cell activating activity (fibroblast proliferation). Type of assay: cell-based. The settings on record: 8.0 ppm, relative to ethanol control (100). As for the experimental part:
Human-derived normal skin fibroblasts (NB1RGB: Institute of Physical and Chemical Research) were suspended into DMEM containing 10% FBS to give a concentration of 20,000 cells/ml, and 5 ml each of this cellular suspension was introduced into each of 25 cm^2 bottles, cultured at 37° C. in the presence of 5% carbon dioxide for 24 hours. To each bottle, was added 10 micro-liter (0.2%) of the ethanol solution containing the compound to give the final concentration shown in Table 8. The cells were cultured for an additional 3 days. After 3 days the old medium was discarded and 5 ml fresh medium was added, and the sample was further added thereto. After this exchange of the medium, the cells were further cultured for another 3 days. Then cells were removed with trypsin and the number of cells in each bottle was counted with a Coultar counter. Simultaneously, as the control, only ethanol was added and the NB1RGB cells were cultured and the number of cells were counted in the same manner. The number of cells in each bottle to which the sample had been added was determined as a relative value to the number (as 100) of cells in the control after cultured, and the results are shown in Table 8.

On to `CC1=C(CCC(C)CC(=O)O)C2(C)CCCC(C)(C)C2CC1` (stereo not drawn) [Compound 1, labd-8-en-15-oic acid], for which the MIC was found to be 12.5 ppm in assay [1]; 6.3 ppm in assay [2]; 6.3 ppm in [3]; 12.5 ppm in [4]; 6.3 ppm in assay [5]; 6.3 ppm in assay [6]. For the same molecule, the MIC in [7] stood at 6.3 ppm; in [8], 6.3 ppm; in [9], 12.5 ppm. In addition, the “Degree of inhibition of tyrosinase in B16 melanoma cells” value in assay [10] was determined as 0%. Besides, the “Degree of inhibition of mushroom tyrosinase” value in assay [11] is reported as 0%. In addition, the “Degree of melanin inhibition” value is given as 80% in assay [12] (3.1 ppm, 3 days) and 22% in assay [13]. Further, the “Degree of cell proliferation” value in assay [12] (3.1 ppm) was 109%; in [13], 115%.
`O=c1cc(CO)occ1O` [Kojic acid, reference compound]: the “Degree of inhibition of mushroom tyrosinase” value in assay [11] is reported as 67%. Also, the “Degree of cell proliferation” value in assay [12] (200.00 ppm) is reported as 94%. In addition, in assay [12] (Mus musculus, 72 h, 200.00 ppm, 3 days, read-out: Degree of melanin inhibition), the inhibition at 200 ppm was found to be 34%. In addition, the results for the ΔΔL in assay [14] (Day 14), in assay [14] (Day 28) and in assay [14] (Day 35) were 1.32, 1.52 and 1.40, respectively.
As to labden-15-oic acid [Compound 10], the MIC in [1], in assay [2], in assay [3], in assay [4], in assay [5] and in assay [6] was 6.3 ppm each time. Further, the MIC in [7] turned out to be 6.3 ppm; in assay [8], 6.3 ppm; in [9], 12.5 ppm. Besides, the “Degree of cell proliferation of fibroblasts” value in [15] was found to be 126%. In [12] (6.3 ppm, 3 days), the “Degree of melanin inhibition” value is given as 83%. For the same molecule, the “Degree of cell proliferation” value in assay [12] (6.3 ppm) was 97%.

The inhibition is the relative decrease from the control value, in per cent.
